From ChEMBL document CHEMBL1154818, “Molecular modeling study of binding site selectivity of TQMP to G-quadruplex DNA” (Eur J Med Chem, 2010)

Assays:
[1] = test system: Nucleic Acid; experiment: Binding affinity to d(TTAGGG) sequence of G-quadruplex DNA; assay type: nucleic-acid assay
[2] = test system: Nucleic Acid; experiment: Binding affinity to DNA duplex; assay type: nucleic-acid assay

SMILES | K [1] | K [2]
C[N+](C)(C)Cc1cc(-c2c3nc(c(-c4ccc(O)c(C[N+](C)(C)C)c4)c4ccc([nH]4)c(-c4ccc(O)c(C[N+](C)(C)C)c4)c4nc(c(-c5ccc(O)c(C[N+](C)(C)C)c5)c5ccc2[nH]5)C=C4)C=C3)ccc1O | 1.12 ×10⁶ /mol | 3.18 ×10⁴ /mol
C[n+]1ccc(-c2c3nc(c(-c4cc[n+](C)cc4)c4ccc([nH]4)c(-c4cc[n+](C)cc4)c4ccc([nH]4)c(-c4cc[n+](C)cc4)c4nc2C=C4)C=C3)cc1 | 1.38 ×10⁷ /mol | 2.73 ×10⁶ /mol
